Reference: patent US6352996B1, “Liposomal prodrugs comprising derivatives of camptothecin and methods of treating cancer using these prodrugs” (priority 1999, dated 2002)
Read-outs that look alike come from different tables or passages of the source.

Legend:
SQU colon carcinoma = details: 10 mg/kg intrastomach or intramuscular, until day 111 (FIG. 15)
Excerpt: (§1) Swiss nude mice of the NIH high fertility strain were bred and maintained pathogen-free in a laboratory. (Giovanella, B. C. and Stehlin, J. S. “Heterotransplantation of human malignant tumors in ‘nude’ thymusless mice. I. Breeding and maintenance of ‘nude’ mice.” J. Natl. Cancer Inst. 51: 615-619; 1973.)
(§2) Human malignant carcinomas of the colon, breast, lung, ovary, stomach, pancreas, bladder, prostate, osteosarcoma and malignant melanomas were heterotransplanted directly from patients into the nude mice and passaged serially. In particular, the tumors CLO, MUR, CAS, SW 48, SQU and BRO as described in Giovanella, B. C., Stehlin, J. S., Shepard, R. C. and Williams, L. J. “Correlation between response to chemotherapy of human tumors in patients and in nude mice.” Cancer 52: 1146-1152; 1983, tumor SCH as described in Heim, S., Mandahl, N., Arheden, K., Giovanella, B. C., Yim, S. O., Stehlin, J. S., Jr. and Mitebman, F. “Multiple karyotypic abnormalities including structural rearrangements of 11P in cell lines from malignant melanomas.” Cancer Genet. Cytogent, 35:5-20; 1988, and Verschraegen, C., Ciovanella, B. C., Mendoza, J. T., Kozielski, A. J. and Stehlin, J. S., Jr. “Specific organ metastases of human melanoma cells injected into the arterial circulation of nude mice.” Anticancer Res., In Press, and tumor PC-3 as described in Invest. Urol. 17, 16-23, 1979, were used. […]

SW48 colon carcinoma = details: interstomach 10 or 20 mg/kg in cottonseed oil, 5 days on/2 days off, fast and non-fast, day 13-34 (FIG. 9)
Excerpt: as §1, §2

BRO melanoma = details: 20 mg/kg intrastomach, 20 days (FIG. 10)
Excerpt: as §2

DOY lung carcinoma = details: 10 and 20 mg/kg intrastomach, day 34 (FIG. 12)
Excerpt: as §2

2774 ovarian carcinoma = details: for tumor size: day 41 (FIG. 13)
Experimental: (§3) One group of six nude mice where treated interstomach with 10 or 20 mg,/kg body weight Compound IA in cottonseed oil per day for five consecutive days with two day intervals of no treatment (i.e., five days of treatment then two days no treatment, and five day treatment and so on). Another group of six nude mice were treated with 10 or 20 mg/kg body weight Compound IA in the same manner. There were also two control groups of six nude mice each. The designation of “fast” means no food was fed to the mice for at least 12 hours before treatment and the designation of “non-fast” means fed normally. Thus, in this experiment, there were 4 groups of mice with 6 mice in each group.
The route of administration and the dosage regimen were the same as in FIG. 9 except there were only 5 mice in each group and only one control group was used.

McC colon carcinoma = details: 20 mg/kg intrastomach or intramuscular twice a week, day 11 to day 25 (FIG. 14)
Experimental: as §3

BRE stomach carcinoma = details: 10 and 20 mg/kg intrastomach, until day 34 (FIG. 11)
Excerpt: Human malignant carcinomas of the colon, breast, lung, ovary, stomach, pancreas, bladder, prostate, osteosarcoma and malignant melanomas were heterotransplanted directly from patients into the nude mice and passaged serially. […] Tumors DOY and HAR (undifferentiated non-oat cell carcinomas of the lung), DIL (a poorly differentiated squamous cell carcinoma of the lung), SPA (a moderately differentiated adenocarcinoma of the lung), LAN (an undifferentiated carcinoma of the ovary), and BRE (a moderately differentiated adenocarcinoma of the stomach) where heterotransplanted. For the experiments, the tumor tissue was finely minced in complete MEM medium and 0.5 ml of a 10% v/v suspension was inoculated subcutaneously on the upper back of groups of 10-30 mice. When the tumors became palpable and measurable in all the animals, they were divided into groups of 4-8 and treated with the desired dose of the drug in experiment or with the vehicle only for the controls,
The dosage regimen and manner of administration are the same as in FIG. 9 except there were 5 mice per group and only one control group.

human tumor xenografts = details: nude mice
[1] = Closed lactone form in human plasma after oral administration; details: for % present as closed lactone form in human blood/plasma: after oral administration (FIGS. 2, 4, 5, 7, 8)
[2] = Stability of lactone form in human plasma; type: in vitro ADME; details: for Percent in plasma (lactone, percent of the initial lactone amount added): 1 μg/ml
Experimental: CPT or SF6A lactone was added to human plasma (1 μg/ml) and an incubation and lactone determination were made as described in Example 15. The lactone amount at each time-point was detected after removing the carboxylate form, and subsequently was calculated as percent of the initial lactone amount added. The results shown in this Table below were derived from one of the three independent experiments performed using different incubation times. The pattern of quantitation of the lactones was similar in all three experiments.

[3] = Closed lactone form in plasma of mice after intrastomach administration; type: in vivo; details: mice, plasma after intrastomach administration (FIG. 1)
U-937 cells = assay: Growth inhibition of U-937 cells treated with CPT esters; type: cell-based; details: 0.2 μM, 120 hr, percent of exponential growth of untreated cells (100%), mean of four estimates
Experimental: Growth inhibition of U-937 cells treated with various CPT esters.
Each identified compound was added to reach a culture of U-937 cell having a final concentration of 0.2 μM. The treatment time was for 120 hr. Growth inhibition in each of the treated cultures was then estimated as a percent of the exponential growth of the cells that was considered 100%. Each estimate was the mean value of four estimates.

[4] = cited from earlier work

## CCC(=O)O[C@]1(CC)C(=O)OCc2c1cc1n(c2=O)Cc2cc3c([N+](=O)[O-])cccc3nc2-1 [Prodrug 11, 9-Nitrocamptothecin-20-O-propionate]
SQU colon carcinoma
  tumor size: essentially stabilized
SW48 colon carcinoma
  tumor size: decline in the tumor size
BRO melanoma
  tumor size: decreased in size
DOY lung carcinoma
  tumor size: dramatic reduction
2774 ovarian carcinoma; 5 mice per group, day 41
  survival: all mice survived the experiment in each group
2774 ovarian carcinoma; higher dosage (10 and 20 mg/kg tested) intrastomach
  tumor size: quite effective in reducing the tumor size
2774 ovarian carcinoma; lesser dosage (10 and 20 mg/kg tested) intrastomach
  tumor size: steady increase in tumor size
McC colon carcinoma
  tumor size: increased slightly but then stabilized
BRE stomach carcinoma
  tumor size: prevention of the growth in the tumor size
Human tumor xenografts
  antitumor activity against xenografts of human tumors: even higher than the camptothecin analogue, Prodrug 2
[1]
  % present as closed lactone form in human blood/plasma: 68.7%
[1]; human, oral administration, versus CPT or 9NC
  increase of lactone share over the parent compound: more than twentyfold

## CC[C@@]1(O)C(=O)OCc2c1cc1n(c2=O)Cc2cc3ccccc3nc2-1 [CPT, 20(S)-camptothecin]
[2]; Time 0 Hr
  Lactone % in Human Plasma: 100%
[2]; Time 1 Hr
  Lactone % in Human Plasma: 12%
[2]; Time 2 Hr
  Lactone % in Human Plasma: 0.5%
[2]; Time 4 Hr
  Lactone % in Human Plasma: 0%
[2]; Time 6 Hr
  Lactone % in Human Plasma: 0%
[2]; human plasma
  metabolite detected: the only metabolite detected is the ring-opened sodium carboxylate salt
[2]; human plasma, incubation time 0.0 hr
  Percent in plasma (lactone, percent of the initial lactone amount added): 100.0%
[2]; human plasma, incubation time 0.5 hr
  Percent in plasma (lactone, percent of the initial lactone amount added): 40.0%
[2]; human plasma, incubation time 1.0 hr
  Percent in plasma (lactone, percent of the initial lactone amount added): 12.0%
[2]; human plasma, incubation time 2.0 hr
  Percent in plasma (lactone, percent of the initial lactone amount added): 0.5%
[2]; human plasma, incubation time 4.0 hr
  Percent in plasma (lactone, percent of the initial lactone amount added): 0.0%
[2]; human plasma, incubation time 6.0 hr
  Percent in plasma (lactone, percent of the initial lactone amount added): 0.0%
[2]; human plasma, incubation time 27.0 hr
  Percent in plasma (lactone, percent of the initial lactone amount added): 0.0%
[2]; human, human plasma, read-out: half-life time of the drug with lactone intact
  half-life: 30 min
[3]
  closed lactone form, share of the area under the curve: approximately 54%
U-937 cells
  Growth %: 0.0%
[4]
  solubility in water: insoluble in water
[1]
  % present as closed lactone form in human blood/plasma: 0.4%
[1]; humans, after oral administration (FIG. 2)
  closed ring lactone form, share of the area under the curve: about 0.4%
